Each block holds one molecule with its values, some of them ahead of it.
Key:
5-Lipoxygenase = target: T1, 5-Lipoxygenase (Homo sapiens, UniProt P09917); test: Inhibition of 5-Lipoxygenase in Human Whole Blood (LTB4, calcium ionophore A23187); type: cell-based
T1 construct: endogenous in cells; host or cells: human whole blood from male donors (results expressed per 10^6 neutrophils)
T1 sequence (P09917 1-674): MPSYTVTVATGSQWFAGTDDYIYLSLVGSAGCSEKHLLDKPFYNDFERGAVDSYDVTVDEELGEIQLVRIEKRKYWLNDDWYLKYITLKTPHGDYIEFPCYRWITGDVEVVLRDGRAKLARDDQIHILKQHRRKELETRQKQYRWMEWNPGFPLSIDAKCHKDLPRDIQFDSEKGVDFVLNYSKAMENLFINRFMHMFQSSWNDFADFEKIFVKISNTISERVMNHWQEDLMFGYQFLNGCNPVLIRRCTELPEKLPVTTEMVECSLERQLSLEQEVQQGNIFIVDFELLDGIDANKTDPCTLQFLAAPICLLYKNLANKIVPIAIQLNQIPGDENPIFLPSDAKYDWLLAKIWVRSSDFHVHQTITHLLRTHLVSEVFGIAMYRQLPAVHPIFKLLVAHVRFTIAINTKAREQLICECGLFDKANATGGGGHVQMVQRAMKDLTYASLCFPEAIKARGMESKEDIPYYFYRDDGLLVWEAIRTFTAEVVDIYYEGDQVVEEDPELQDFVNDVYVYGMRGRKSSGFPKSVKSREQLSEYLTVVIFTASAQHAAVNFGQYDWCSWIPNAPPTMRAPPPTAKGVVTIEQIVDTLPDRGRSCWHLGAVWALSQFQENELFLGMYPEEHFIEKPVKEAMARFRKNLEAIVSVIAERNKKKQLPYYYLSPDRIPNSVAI
Protocol: 1. Inhibition of 5-Lipoxygenase in Human Whole Blood
Blood is obtained in 50-100 ml quantities from male donors. White blood cell counts and differentials are made. Two ml of blood are placed in a 15 ml polypropylene test tube. Test compounds are solubilized in dimethylsulfoxide and diluted in 1:10 in 10% bovine serum albumin in phosphate buffered saline, pH 7.4 resulting in a final dimethylsulfoxide concentration of 0.1% in the blood. Then, solutions of test compounds are added to the blood in a shaking water bath at 37° C. for 10 minutes prior to the addition of 30 μM calcium ionophore (A23 187, Sigma). After ionophore administration, whole blood samples are mixed and incubated for 20 minutes at 37° C. in a shaking water bath. Incubation is terminated by placing samples in an ice bath and immediately adding ethylene glycol-bis-(β-aminoethyl ether)-N,N,N',N'-tetraaceticacid (10 mM). Samples are mixed and centrifuged at 1200 x g for 15 minutes at 4° C. Preparation of samples for evaluation by RIA or ELISA is carried out by the following protocol. Plasma is removed from sample tubes, placed in 15 ml polypropylene test tubes containing 8 ml methanol, and then vortexed to precipitate protein. Samples are stored at -70° C. overnight. The next day, samples are centrifuged at 200 x g for 15 minutes at 4° C. to pellet the precipitate. Samples are dried in a Savant SpeedVac Concentrator, Model SVC 200H, reconstituted to original volume with ice cold RIA or ELISA buffer, and stored at -70° C. until assayed. The assay for eicosanoids (LTB4, TxB2, and PGE2) is performed as described by the manufacturer of the [^3 H]-RIA kit or ELISA kit (LTB4 -Amersham, TxB2 and PGE2 -Caymen Chemical).
The total eicosanoid level in 2 ml of blood is calculated and reported as ng/10^6 neutrophils. Significance is determined by a one-way analysis of variance with least significant difference (LSD) comparisons to control (p≤0.05) and IC50 's (μM) are determined by regression analysis (Finney, 1978). Drug effects are expressed as percent change from control values.

LTB4 Synthesis = test: Reverse Passive Arthus Reaction (pleurisy), LTB4 in pleural exudate; type: in vivo, rat (male Lewis); conditions: for ED50: Rattus norvegicus, po, values in parentheses are ED50, read-out: (ED50) Inhibition of LTB4; for ED50 / % Inhibition of LTB4: standard drugs
Protocol: 3. Reverse Passive Arthus Reaction
A reverse passive Arthus reaction is induced in the pleural cavity of male Lewis rats (150-200 g; fasted overnight prior to use) by the intravenous administration of bovine serum albumin (BSA; 4 mg/0.2 ml) followed 30 minutes later by the injection of rabbit anti-BSA (1 mg/0.2 ml; lyophilized IgG fraction; Organon Teknika, West Chester, Pa.) into the right pleural space under halothane anesthesia. Drugs or vehicle (0.5% Tween-80) control are administered orally in a volume of 1 ml/100 g body weight at 1 hour prior to the anti-BSA. Animals are sacrificed at either the time of peak eicosanoid production (i.e. 5 minutes after anti-BSA for immunoreactive TxB2, 10 minutes for immunoreactive LTB4, 20 minutes for immunoreactive LTC4) or at the time of peak neutrophil infiltration (4 hours after anti-BSA) by CO2 inhalation. The pleural cavity is then exposed., the fluid exudate removed by gentle vacuum aspiration and the volume of exudate is recorded. For the determination of cellular infiltration, the pleural cavity is rinsed with 3 ml of 0.1% EDTA in sterile saline, and the recovered wash is pooled with the exudate. Cell number is determined on a model ZBI Coulter counter. For determination of eicosanoid production, undiluted pleural exudate is microfuged and the supernatant is extracted with ethanol (8-10 times volume). Extracts are either stored at -20° C., or are evaporated to dryness under a stream of N2 and reconstituted in radioimmunoassay (RIA) buffer.
Eicosanoids are quantitated by RIA according to the procedure specified by the RIA kit manufacturer (Advanced Magnetics, Cambridge, Mass.). Briefly, 100 μl of ^3 H-labeled eicosanoid and 100 μl of specific antibody are sequentially added to 100 μl of extracted pleural exudate in BGG-phosphate buffer which contains 0.01M phosphate, 0.1% bovine gamma globulin and 0.1% sodium azide at pH 7.0. Antibody-bound eicosanoid is separated from unbound eicosanoid by the addition of 750 μl of dextran (0.4%)-coated charcoal (Norit A) containing 0.1% sodium azide. The mixture is centrifuged at 2000 RPM at 5° C. for 15 minutes to pellet the charcoal and adsorbed unbound eicosanoid. Antibody-bound labeled eicosanoid is quantitated by counting in a liquid scintillation counter, and is correlated to concentration by a standard curve.

[1] = test system: LT-dependent bronchoconstriction; test: Inhibition of Bronchoconstriction in Guinea Pigs Induced by Exogenously Administered Antigen; type: in vivo, guinea pig (male); conditions: Cavia porcellus, 5 min, 5 min post-antigen challenge; for inhibition in vivo at 10 mg/kg: iv, 10 mg/kg i.v.
Protocol: 4. Inhibition of Brochoconstriction in Guinea Pigs Induced by Exogenously Administered Antigen
Male guinea pigs (Charles River, Wilmington, Mass.) were sensitized 3-4 weeks prior to antigen challenge by administration of 2 i.m. injections of ovalbumin, 1 into each hind limb (35 mg total). Sensitized animals (500-600 g) were fasted overnight prior to experimentation. Conscious animals were then dosed p.o. with drug or vehicle alone (0.5% Tween 80 in H2 O) at the indicated times prior to antigen challenge, or anesthetized animals were dosed i.v. with drug or vehicle alone (DMSO) 5 min prior to antigen challenge. Animals were anesthetized by urethane (2.8 g/kg i.p.). A carotid artery and jugular vein were cannulated to allow for the monitoring of blood pressure and the administration of drugs, respectively. The trachea was then cannulated and connected to a Harvard Apparatus rodent ventilator (S. Natick, Mass.). Spontaneous respiration was abolished by the administration of succinylcholine (2.5 mg/kg i.v.). The animals were then ventilated with room air at a rate of 65 breaths per min. Airway inflation pressure was measured using a Statham pressure transducer (Gould Instruments, Cleveland, Ohio) connected to the tracheal cannula via a side-arm and recorded on a Grass Instruments recorder (Quincy, Mass.). The tidal volume (approximately 10 cc/kg) was adjusted to give a baseline inflation pressure of 8-10 cm H2 O at end inspiration. Animals were then allowed 20 min to stabilize.
Following the stabilization period, animals were given i.v. injections of pyrilamine (5 mg/kg), propranolol (0.1 mg/kg) and indomethacin (10 mg/kg) at 15, 10 and 5 min, respectively, prior to antigen challenge. This pretreatment results in an LT-dependent bronchoconstriction following antigen challenge, which was accomplished by i.v. administration of ovalbumin (10 mg/kg). Only one bronchoconstriction per animal was induced. End-inspiratory inflation pressure (in cm H2 O over baseline) was measured at 5 min post-antigen challenge. A mean value and standard error for the % inhibition of control bronchoconstriction in each drug-treated group was then calculated.

- % Inhibition of LTB4 (5-Lipoxygenase; 10 μM): 83%
Molecule: 1,3-Dihydroxy-1-[4-(5-methyl-2-phenyl-oxazol-4-ylmethoxy)-benzyl]-urea [Example 17]

Molecule: NC1=NN(c2cccc(C(F)(F)F)c2)CC1 [BW755C, reference compound]
- ED50 (LTB4 Synthesis; p.o.): 23 mg/kg

Molecule: O=C(O)Cc1ccccc1Nc1c(Cl)cccc1Cl [Diclofenac, reference compound]
- % Inhibition of LTB4 (LTB4 Synthesis; 10 mg/kg p.o.): 0%

- inhibition at 1 µM (5-Lipoxygenase): 61%
Molecule: NC(=S)N(O)Cc1cccc(OCc2coc(-c3ccc(F)cc3)n2)c1 [Example 4, 1-Hydroxy-1-[3-[2-(4-fluoro-phenyl)-oxazol-4-ylmethoxy]-benzyl]-thiourea]
- inhibition in vivo at 10 mg/kg [1]: 53%

- inhibition at 1 µM (5-Lipoxygenase): 50%
Molecule: COc1ccc(-c2nc(COc3cccc(CN(O)C(N)=O)c3)cs2)cc1 [Example 7, 1-Hydroxy-1-[3-[2-(4-methoxy-phenyl)-thiazol-4-ylmethoxy]-benzyl]-urea]
- inhibition in vivo at 10 mg/kg [1]: 58%
- inhibition in vivo at 25 mg/kg ([1]; po, 25 mg/kg p.o.): 18%

- inhibition at 1 µM (5-Lipoxygenase): 77%
Molecule: Cc1oc(-c2ccc(Cl)cc2)nc1COc1cccc(CN(O)C(N)=O)c1 [Example 8, 1-[3-[2-(4-Chloro-phenyl)-5-methyl-oxazol-4-ylmethoxy]-benzyl]-1-hydroxy-urea]
- inhibition in vivo at 10 mg/kg [1]: 41%
- % Inhibition LTB4 Synthesis (LTB4 Synthesis; 10 mg/kg, p.o.): 39%

- inhibition at 1 µM (5-Lipoxygenase): 51%
Molecule: Cc1oc(-c2cccc(C(F)(F)F)c2)nc1COc1cccc(CN(O)C(N)=O)c1 [Example 10, 1-Hydroxy-1-[3-[2-(3-trifluoromethyl-phenyl)-5-methyl-oxazol-4-ylmethoxy]-benzyl]-urea]

- inhibition at 10 µM (5-Lipoxygenase; 10 μM): 57%
Molecule: Cc1oc(-c2cc(C(F)(F)F)cc(C(F)(F)F)c2)nc1COc1cccc(CN(O)C(N)=O)c1 [Example 11, 1-[3-[2-(3,5-Bis-trifluoromethyl-phenyl)-5-methyl-oxazol-4-ylmethoxy]-benzyl]-1-hydroxy-urea]

- inhibition at 10 µM (5-Lipoxygenase; 10 μM): 85%
Molecule: Cc1oc(-c2ccc(C(F)(F)F)cc2)nc1COc1cc(F)cc(CN(O)C(N)=O)c1 [Example 12, 1-[3-Fluoro-5-[5-methyl-2-(4-trifluoromethyl-phenyl)-oxazol-4-ylmethoxy]-benzyl]-1-hydroxy-urea]

- inhibition at 10 µM (5-Lipoxygenase; 10 μM): 80%
Molecule: Cc1oc(-c2ccccc2)nc1COc1cccc(C(C)N(O)C(N)=O)c1 (stereo not shown) [Example 14, 1-Hydroxy-1-[1-[3-(5-methyl-2-phenyl-oxazol-4-ylmethoxy)-phenyl]-ethyl]-urea]

- inhibition at 10 µM (5-Lipoxygenase; 10 μM): 47%
Molecule: CC(/C=C/c1cccc(OCc2csc(-c3ccccc3)n2)c1)N(O)C(N)=O (stereo not shown) [Example 15, (E)-1-Hydroxy-1-[1-methyl-3-[3-(2-phenyl-thiazol-4-ylmethoxy)-phenyl]-allyl]-urea]

- inhibition at 10 µM (5-Lipoxygenase; 10 μM): 57%
Molecule: Cc1oc(-c2ccc(Cl)cc2)nc1COc1cccc(/C=C/C(C)N(O)C(N)=O)c1 (stereo not shown) [Example 16, (E)-1-[3-[3-[2-(4-chlorophenyl)-5-methyl-oxazol-4-ylmethoxy]-phenyl]-1-methyl-allyl]-1-hydroxyl-urea]

- inhibition at 10 µM (5-Lipoxygenase; 10 μM): 69%
Molecule: Cc1oc(-c2ccccc2)nc1COc1cccc(CN(O)C(=O)N(C)O)c1 [Example 18, 1,3-Dihydroxy-3-methyl-1-[3-(5-methyl-2-phenyl-oxazol-4-ylmethoxy)benzyl]-urea]

Molecule: COc1ccc2c(c1)c(CC(=O)O)c(C)n2C(=O)c1ccc(Cl)cc1 [Indomethacin, reference compound]
- % Inhibition of LTB4 (LTB4 Synthesis; 4 mg/kg p.o.): 12%

Molecule: CC(C(=O)O)c1cccc(C(=O)c2ccccc2)c1 (stereo not shown) [Ketoprofen, reference compound]
- % Inhibition of LTB4 (LTB4 Synthesis; 10 mg/kg p.o.): 35%

Molecule: COc1ccc2cc([C@H](C)C(=O)O)ccc2c1 [Naproxen, reference compound]
- % Inhibition of LTB4 (LTB4 Synthesis; 4 mg/kg p.o.): 0%

Molecule: O=C1CCN(c2ccccc2)N1 [Phenidone, reference compound]
- ED50 (LTB4 Synthesis; p.o.): 10 mg/kg

From patent US5468760A, “Aralkyl-N-hydroxyureas as inhibitors of 5-lipoxygenase and oxidation of low density lipoprotein” (American Home Products Corporation, priority 1993, dated 1995)
